Laboratory results taken from ChEMBL document CHEMBL5537201, “Discovery of Unique Bis-Substituted Aromatic Amide Derivatives as Novel Highly Potent Antibiotics for Combating Methicillin-Resistant Staphylococcus aureus (MRSA)” (J Med Chem, 2024).
Converted amounts (≈) assume the structure as drawn. The source made the active and inactive calls. The rule behind the calls is not given here.

What was measured:
Staphylococcus aureus [1] = assay: Antibacterial activity against methicillin-resistant Staphylococcus aureus clinical isolate MRS153 infected in C57BL/6N mouse model assessed as infiltration of inflammatory cells at 3.125 to 12.5 mg/kg, iv; type: functional, organism-based; settings: dose 3.125-12.5 mg/kg
Staphylococcus aureus [2] = assay: In vivo antibacterial activity against methicillin-resistant Staphylococcus aureus clinical isolate MRS153 infected in C57BL/6N mouse model assessed as reduction in bacterial load in spleen at 3.125 to 12.5 mg/kg, iv measured after 24 hrs; type: functional, organism-based; settings: dose 3.125-12.5 mg/kg
[3] = Toxicity in BALB/c mouse assessed as as effect on liver at 25 to 50 mg/kg, iv by H and E staining based analysis; type: organism-based; settings: in vivo, dose 25-50 mg/kg
Staphylococcus aureus [4] = assay: Bactericidal activity against norfloxacin-resistant Staphylococcus aureus ATCC6538 at 5 ug/ml measured upto 150 mins; type: functional, organism-based; settings: dose 5.0 µg/ml
Staphylococcus aureus [5] = assay: Antibacterial activity against methicillin-resistant Staphylococcus aureus clinical isolate MRS153 infected in C57BL/6N mouse model assessed as improvement in survival rate at 3.125 to 12.5 mg/kg, iv administered as single dose measured for 7 days; type: functional, organism-based; settings: dose 3.125-12.5 mg/kg, time 7.0 day
[6] = Toxicity in BALB/c mouse assessed as as effect on kidney at 25 to 50 mg/kg, iv by H and E staining based analysis; type: organism-based; settings: in vivo, dose 25-50 mg/kg
Staphylococcus aureus [7] = assay: Antimicrobial activity against methicillin resistant Staphylococcus aureus clinical isolate MRS23 assessed as reduction in bacterial growth incubated for 24 hrs by two-fold broth dilution method; type: functional
Staphylococcus aureus [8] = assay: In vivo antibacterial activity against methicillin-resistant Staphylococcus aureus clinical isolate MRS153 infected in C57BL/6N mouse model assessed as reduction in bacterial load in kidney at 3.125 to 12.5 mg/kg, iv measured after 24 hrs; type: functional, organism-based; settings: dose 3.125-12.5 mg/kg
HeLa = assay: Cytotoxicity against human HeLa cells assessed as reduction in cell viability measured after 24 hrs by CCK-8 method; type: functional, cell-based
Staphylococcus aureus [9] = assay: Antimicrobial activity against methicillin resistant Staphylococcus aureus clinical isolate MRS153 assessed as membrane fluidity measured after 35 mins; type: functional, organism-based
Staphylococcus aureus [10] = assay: Antimicrobial activity against methicillin resistant Staphylococcus aureus clinical isolate MRS153 assessed as reduction in bacterial growth incubated for 24 hrs by two-fold broth dilution method; type: functional
Cell membrane [11] = assay: Induction of cytoplasmic membrane depolarization in methicillin resistant Staphylococcus aureus clinical isolate MRS153 assessed as increase in fluorescence intensity measured upto 120 mins by DiSC3(5) dye based fluorescence method; type: cell membranes
A549 = assay: Cytotoxicity against human A549 cells assessed as reduction in cell viability measured after 24 hrs by CCK-8 method; type: functional, cell-based; settings: A549, 24 h
Staphylococcus aureus [12] = assay: Antimicrobial activity against methicillin resistant Staphylococcus aureus clinical isolate MRS200 assessed as reduction in bacterial growth incubated for 24 hrs by two-fold broth dilution method; type: functional
Cell membrane [13] = assay: Disruption of cell membrane integrity in Staphylococcus aureus ATCC6538 assessed as increase in fluorescence intensity at 1 to 26 times MIC measured upto 36 mins ethidium bromide uptake assay; type: cell membranes
[14] = Binding affinity to Staphylococcus aureus ATCC6538 Cardiolipin assessed as dissociation constant by ITC analysis
Staphylococcus aureus [15] = assay: Antimicrobial activity against Staphylococcus aureus ATCC6538 assessed as increase in ROS levels measured upto 90 mins by H2DCFDA probe based flow cytometry; type: functional, organism-based
Staphylococcus aureus [16] = assay: Antibacterial activity against methicillin-resistant Staphylococcus aureus clinical isolate MRS153 infected in C57BL/6N mouse model assessed as reversal of cell morphology to normal state at 3.125 to 12.5 mg/kg, iv; type: functional, organism-based; settings: dose 3.125-12.5 mg/kg
Peptidoglycan = assay: Binding affinity to Staphylococcus aureus ATCC6538 peptidoglycan assessed as change in MIC at upto 256 ug/ml measured after 22 hrs; settings: dose <= 256.0 µg/ml
[17] = Toxicity in BALB/c mouse assessed as mouse death at 50 mg/kg, iv measured upto 8 days; type: organism-based; settings: in vivo, 192 h, time < 8 day
Staphylococcus aureus [18] = assay: Induction of membrane morphological changes in Staphylococcus aureus ATCC6538 assessed as cell membrane deformation at 5 times of MIC measured after 0.5 hrs by FE-SEM analysis; type: functional, organism-based
Cell membrane [19] = assay: Induction of inner membrane permeabilization in Staphylococcus aureus ATCC6538 assessed as increase in blue fluorescence at 5 ug/ml by DAPI staining based analysis; type: cell membranes; settings: dose 5.0 µg/ml
Staphylococcus aureus [20] = assay: Antimicrobial activity against methicillin resistant Staphylococcus aureus clinical isolate MRS153 assessed as increase in ROS levels measured upto 180 mins in presence of 2,2'-bipyridyl and thiourea by H2DCFDA probe based flow cytometry; type: functional, organism-based
Cell membrane [21] = assay: Induction of inner membrane permeabilization in Staphylococcus aureus ATCC6538 assessed as disruption of cell membrane by measuring rightward shift measured after by PI staining based flow cytometry analysis; type: cell membranes
[22] = Toxicity in BALB/c mouse assessed as as change in BUN level at 25 to 50 mg/kg, iv; type: organism-based; settings: in vivo, dose 25-50 mg/kg
Staphylococcus aureus [23] = assay: Antimicrobial activity against Staphylococcus aureus ATCC6538 assessed as increase in ROS levels measured upto 180 mins in presence of 2,2'-bipyridyl and thiourea by H2DCFDA probe based flow cytometry; type: functional, organism-based
[24] = Toxicity in BALB/c mouse assessed as as effect on heart at 25 to 50 mg/kg, iv by H and E staining based analysis; type: organism-based; settings: in vivo, dose 25-50 mg/kg
Staphylococcus aureus [25] = assay: Upregulation of redox gene expression in Staphylococcus aureus ATCC6538 at 5 ug/ml incubated for 2 hrs by RNA sequencing analysis; type: functional, organism-based; settings: dose 5.0 µg/ml
Staphylococcus aureus [26] = assay: Induction of drug resistance in Staphylococcus aureus ATCC6538 assessed as change in MIC measured after 10 passages; type: functional
Staphylococcus aureus [27] = assay: Upregulation of ABC transport family genes in Staphylococcus aureus ATCC6538 at 5 ug/ml incubated for 2 hrs by RNA sequencing analysis; type: functional; settings: dose 5.0 µg/ml
Staphylococcus aureus [28] = assay: Antimicrobial activity against methicillin resistant Staphylococcus aureus clinical isolate MRS153 assessed as increase in ROS levels measured upto 180 mins in presence of chloramphenicol by H2DCFDA probe based flow cytometry; type: functional, organism-based
[29] = Toxicity in BALB/c mouse assessed as as effect on spleen at 25 to 50 mg/kg, iv by H and E staining based analysis; type: organism-based; settings: in vivo, dose 25-50 mg/kg
Staphylococcus aureus [30] = assay: Upregulation of repair gene expression in Staphylococcus aureus ATCC6538 at 5 ug/ml incubated for 2 hrs by RNA sequencing analysis; type: functional, organism-based; settings: dose 5.0 µg/ml
Staphylococcus aureus [31] = assay: In vivo antibacterial activity against methicillin-resistant Staphylococcus aureus clinical isolate MRS153 infected in C57BL/6N mouse model assessed as reduction in bacterial load in lung at 3.125 to 12.5 mg/kg, iv measured after 24 hrs; type: functional, organism-based; settings: dose 3.125-12.5 mg/kg
Staphylococcus aureus [32] = assay: Antimicrobial activity against Staphylococcus aureus ATCC6538 assessed as membrane fluidity measured after 35 mins; type: functional, organism-based
[33] = Selectivity index, ratio of IC50 for African green monkey Vero E6 cells to MIC for Staphylococcus aureus ATCC6538; type: toxicity; settings: read-out: Selectivity Index
Staphylococcus aureus [34] = assay: Bactericidal activity against methicillin-resistant Staphylococcus aureus clinical isolate MRS153 at 5 ug/ml measured upto 150 mins; type: functional, organism-based; settings: dose 5.0 µg/ml

For `O=C(CCC(F)(F)F)N(Cc1cc2ccccc2s1)c1cc(-c2noc(C(F)(F)F)n2)ccc1O`, the Activity (Staphylococcus aureus [1]) was “Active”, the Activity (Staphylococcus aureus [2]) was “Active” and the Activity [3] was “Non-Toxic”. For the same molecule, the Activity (Staphylococcus aureus [4]) was “Active”, the Activity (Staphylococcus aureus [5]) was “Active” and the Activity [6] was “Non-Toxic”. For the same molecule, the MIC (Staphylococcus aureus [7]) was 2 µg/mL (≈ 3.88 µM), the Activity (Staphylococcus aureus [8]) was “Active” and the IC50 (HeLa) was over 25 µg/mL. The Activity (Staphylococcus aureus [9]) was “Active”, the MIC (Staphylococcus aureus [10]) was 1 µg/mL (≈ 1.94 µM) and the Activity (Cell membrane [11]) was “Active”. For the same molecule, the IC50 (A549) was 16.8 µg/mL (≈ 32.7 µM), the MIC (Staphylococcus aureus [12]) was 2 µg/mL (≈ 3.88 µM) and the Activity (Cell membrane [13]) was “Active”. The Kd [14] was 5.75 µM, the Activity (Staphylococcus aureus [15]) was “Active” and the Activity (Staphylococcus aureus [16]) was “Active”. The Activity (Peptidoglycan) was “inactive”, the Activity [17] was “Non-Toxic” and the Activity (Staphylococcus aureus [18]) was “Active”. The Activity (Cell membrane [19]) was “Active”, the Activity (Staphylococcus aureus [20]) was “inactive” and the Activity (Cell membrane [21]) was “Active”. The Activity [22] was “Non-Toxic”, the Activity (Staphylococcus aureus [23]) was “inactive” and the Activity [24] was “Non-Toxic”. The Activity (Staphylococcus aureus [25]) was “Active”, the Activity (Staphylococcus aureus [26]) was “inactive” and the Activity (Staphylococcus aureus [27]) was “Active”. For the same molecule, the Activity (Staphylococcus aureus [28]) was “inactive”, the Activity [29] was “Non-Toxic” and the Activity (Staphylococcus aureus [30]) was “Active”. For the same molecule, the Activity (Staphylococcus aureus [31]) was “Active”, the Activity (Staphylococcus aureus [32]) was “Active” and the selectivity ratio [33] was over 100. The Activity (Staphylococcus aureus [34]) was “Active”.
